Test system: MV-4-11 cells
Assay: Gene expression microarray analysis (Affymetrix PrimeView) and GSEA
Assay type: cell-based, human
Design: RFU PODN (11730768_x_at) / Fold change /veh PODN (11730768_x_at) / RFU LINC00158 (11744669_a_at) / Fold change /veh LINC00158 (11744669_a_at) / RFU DUSP10 (11751237_a_at) / Fold change /veh DUSP10 (11751237_a_at) / RFU ID3 (11757404_x_at) / Fold change /veh ID3 (11757404_x_at) / RFU PLEKHG5 (11737974_s_at) / Fold change /veh PLEKHG5 (11737974_s_at) / RFU LRRC4B (11730491_at) / Fold change /veh LRRC4B (11730491_at) / RFU GIMAP4 (11747438_a_at) / Fold change /veh GIMAP4 (11747438_a_at) / RFU KRT8 (11758183_x_at) / Fold change /veh KRT8 (11758183_x_at) / RFU CNN1 (11734310_a_at) / Fold change /veh CNN1 (11734310_a_at) / RFU VPS37D (11726825_at) / Fold change /veh VPS37D (11726825_at) / RFU C10orf10 (11716522_x_at) / Fold change /veh C10orf10 (11716522_x_at) / RFU KIR2DL2 /// KIR2DL4 /// KIR2DL5A /// KIR2DL5B /// KIR2DS1 /// KIR2DS2 /// KIR2DS3 /// KIR2DS4 /// KIR3DL3 /// KIR3DL3 /// KIR3DS1 (11738374_at) / Fold change /veh KIR2DL2 /// KIR2DL4 /// KIR2DL5A /// KIR2DL5B /// KIR2DS1 /// KIR2DS2 /// KIR2DS3 /// KIR2DS4 /// KIR3DL3 /// KIR3DL3 /// KIR3DS1 (11738374_at) / RFU C1QL1 (11718748_at) / Fold change /veh C1QL1 (11718748_at) / RFU TMPRSS4 (11747572_a_at) / Fold change /veh TMPRSS4 (11747572_a_at) / RFU HAMP (11756126_x_at) / Fold change /veh HAMP (11756126_x_at) / RFU RNFT2 (11725882_a_at) / Fold change /veh RNFT2 (11725882_a_at) / RFU NR4A2 (11747474_a_at) / Fold change /veh NR4A2 (11747474_a_at) / RFU ABCC12 (11746883_a_at) / Fold change /veh ABCC12 (11746883_a_at) / RFU TMEM136 (11760407_x_at) / Fold change /veh TMEM136 (11760407_x_at) / RFU CLDN22 /// WWC2 (11732394_at) / Fold change /veh CLDN22 /// WWC2 (11732394_at) / RFU HLA-DPB1 (11760878_x_at) / Fold change /veh HLA-DPB1 (11760878_x_at) / RFU SPINT1 (11716480_a_at) / Fold change /veh SPINT1 (11716480_a_at) / RFU GAP43 (11754022_s_at) / Fold change /veh GAP43 (11754022_s_at) / RFU A4GNT (11735810_at) / Fold change /veh A4GNT (11735810_at) / RFU PRB3 (11715151_x_at) / Fold change /veh PRB3 (11715151_x_at) / RFU TUBB4B (11761932_at) / Fold change /veh TUBB4B (11761932_at) / RFU CAPN14 (11732068_a_at) / Fold change /veh CAPN14 (11732068_a_at) / RFU TMCC2 (11721928_a_at) / Fold change /veh TMCC2 (11721928_a_at) / RFU IRGQ (11745062_a_at) / Fold change /veh IRGQ (11745062_a_at) / RFU FAM174B (11720279_a_at) / Fold change /veh FAM174B (11720279_a_at) / RFU TMPRSS4 (11748680_a_at) / Fold change /veh TMPRSS4 (11748680_a_at) / RFU FAM212B (11763350_a_at) / Fold change /veh FAM212B (11763350_a_at) / RFU PLEKHG5 (11743358_a_at) / Fold change /veh PLEKHG5 (11743358_a_at) / RFU ZSCAN30 (11745921_a_at) / Fold change /veh ZSCAN30 (11745921_a_at) / RFU CMKLR1 (11741424_a_at) / Fold change /veh CMKLR1 (11741424_a_at) / RFU LOC101060620 /// MAPK8IP1 (11723275_at) / Fold change /veh LOC101060620 /// MAPK8IP1 (11723275_at) / RFU SPTSSB (11747773_x_at) / Fold change /veh SPTSSB (11747773_x_at) / RFU PRSS12 (11739890_at) / Fold change /veh PRSS12 (11739890_at) / RFU BIN1 (11741810_x_at) / Fold change /veh BIN1 (11741810_x_at) / RFU WNT11 (11732464_a_at) / Fold change /veh WNT11 (11732464_a_at) / RFU C10orf10 (11716521_a_at) / Fold change /veh C10orf10 (11716521_a_at) / RFU C5orf56 (11738089_at) / Fold change /veh C5orf56 (11738089_at) / RFU CYB561 (11721691_x_at) / Fold change /veh CYB561 (11721691_x_at) / RFU ANKRD19P (11752326_a_at) / Fold change /veh ANKRD19P (11752326_a_at) / RFU OR2T12 /// OR2T33 /// OR2T8 (11738714_s_at) / Fold change /veh OR2T12 /// OR2T33 /// OR2T8 (11738714_s_at) / RFU VCAN (11748164_a_at) / Fold change /veh VCAN (11748164_a_at) / RFU JSRP1 (11732532_at) / Fold change /veh JSRP1 (11732532_at) / RFU KRTAP10-11 (11738290_x_at) / Fold change /veh KRTAP10-11 (11738290_x_at) / RFU MYO3A (11730013_a_at) / Fold change /veh MYO3A (11730013_a_at) / RFU EBF3 (11725865_a_at) / Fold change /veh EBF3 (11725865_a_at) / RFU CAMK2N1 (11719241_x_at) / Fold change /veh CAMK2N1 (11719241_x_at) / RFU C5orf56 (11738088_a_at) / Fold change /veh C5orf56 (11738088_a_at) / RFU OLFML3 (11715873_a_at) / Fold change /veh OLFML3 (11715873_a_at) / RFU LOC100653217 /// NTM (11731650_a_at) / Fold change /veh LOC100653217 /// NTM (11731650_a_at) / RFU MAPK11 (11762145_a_at) / Fold change /veh MAPK11 (11762145_a_at) / RFU FIZ1 (11724087_x_at) / Fold change /veh FIZ1 (11724087_x_at) / RFU OASL (11726364_x_at) / Fold change /veh OASL (11726364_x_at) / RFU SOX15 (11748057_x_at) / Fold change /veh SOX15 (11748057_x_at) / RFU CD79A (11719716_a_at) / Fold change /veh CD79A (11719716_a_at) / RFU HIST1H1D (11736915_at) / Fold change /veh HIST1H1D (11736915_at) / RFU CASKIN2 (11723855_a_at) / Fold change /veh CASKIN2 (11723855_a_at) / RFU LOC730098 (11760151_x_at) / Fold change /veh LOC730098 (11760151_x_at) / RFU OR4N2 (11742367_at) / Fold change /veh OR4N2 (11742367_at) / RFU PRRT2 (11749266_a_at) / Fold change /veh PRRT2 (11749266_a_at) / RFU SNX32 (11753110_a_at) / Fold change /veh SNX32 (11753110_a_at) / RFU CDHR5 (11726645_a_at) / Fold change /veh CDHR5 (11726645_a_at) / RFU RCAN1 (11760418_a_at) / Fold change /veh RCAN1 (11760418_a_at) / RFU FAM167A (11723789_a_at) / Fold change /veh FAM167A (11723789_a_at) / RFU FAM26E (11764081_at) / Fold change /veh FAM26E (11764081_at) / RFU ISYNA1 (11749810_s_at) / Fold change /veh ISYNA1 (11749810_s_at) / RFU ACY1 (11761880_at) / Fold change /veh ACY1 (11761880_at) / RFU 11764098_at / Fold change /veh 11764098_at / RFU SAMD14 (11745864_x_at) / Fold change /veh SAMD14 (11745864_x_at) / RFU NPB (11741838_a_at) / Fold change /veh NPB (11741838_a_at) / RFU TMPRSS6 (11731388_a_at) / Fold change /veh TMPRSS6 (11731388_a_at) / RFU KRTAP10-2 (11738614_at) / Fold change /veh KRTAP10-2 (11738614_at) / RFU ARHGAP8 /// PRR5-ARHGAP8 (11727945_x_at) / Fold change /veh ARHGAP8 /// PRR5-ARHGAP8 (11727945_x_at) / RFU KRTAP5-7 /// NADSYN1 (11734609_at) / Fold change /veh KRTAP5-7 /// NADSYN1 (11734609_at) / RFU RASL12 (11751679_a_at) / Fold change /veh RASL12 (11751679_a_at) / RFU CDKN2B (11736163_a_at) / Fold change /veh CDKN2B (11736163_a_at) / RFU PRF1 (11729649_at) / Fold change /veh PRF1 (11729649_at) / RFU, ZNF638 /// ZNF638-IT1 / Fold change vs veh, ZNF638 /// ZNF638-IT1 / RFU, PANK3 / Fold change vs veh, PANK3 / RFU, SH3YL1 / Fold change vs veh, SH3YL1 / RFU, ZEB2 / Fold change vs veh, ZEB2 / RFU, NRIP1 / Fold change vs veh, NRIP1 / RFU, PTTG1IP / Fold change vs veh, PTTG1IP / RFU, CAPN2 / Fold change vs veh, CAPN2 / RFU, MED14 / Fold change vs veh, MED14 / RFU, SNORA58 / Fold change vs veh, SNORA58 / RFU, C1orf63 / Fold change vs veh, C1orf63 / RFU, LRRFIP1 / Fold change vs veh, LRRFIP1 / RFU, NDUFAF7 / Fold change vs veh, NDUFAF7 / RFU, SLC12A2 / Fold change vs veh, SLC12A2 / RFU, IBTK / Fold change vs veh, IBTK / RFU, ESF1 / Fold change vs veh, ESF1 / Fold change vs veh, TMEM50B / RFU, TAOK1 / Fold change vs veh, TAOK1 / RFU, ACBD3 / Fold change vs veh, ACBD3 / RFU, TMA16 / Fold change vs veh, TMA16 / RFU, RWDD3 / Fold change vs veh, RWDD3 / RFU, BCAT1 / Fold change vs veh, BCAT1 / RFU, EDEM3 / Fold change vs veh, EDEM3 / RFU, TMEM33 / Fold change vs veh, TMEM33 / RFU, WDR75 / Fold change vs veh, WDR75 / RFU, AHCTF1 / Fold change vs veh, AHCTF1 / RFU, TFRC / Fold change vs veh, TFRC / RFU, ZDHHC17 / Fold change vs veh, ZDHHC17 / RFU, NOM1 / Fold change vs veh, NOM1 / RFU, ARL8B / Fold change vs veh, ARL8B / RFU, ZBTB11 / Fold change vs veh, ZBTB11 / RFU, TAMM41 / Fold change vs veh, TAMM41 / RFU, KIAA1704 /// LOC100996395 / Fold change vs veh, KIAA1704 /// LOC100996395 / RFU, ING1 / Fold change vs veh, ING1 / RFU, TRMT61B / Fold change vs veh, TRMT61B / RFU, FUBP3 / Fold change vs veh, FUBP3 / RFU, TP53 / Fold change vs veh, TP53 / RFU, TNKS2 / Fold change vs veh, TNKS2 / RFU, ZFP14 / Fold change vs veh, ZFP14 / RFU, ACTR2 / Fold change vs veh, ACTR2 / RFU, PPP3R1 / Fold change vs veh, PPP3R1 / RFU, PIK3R1 / Fold change vs veh, PIK3R1 / RFU, HNRNPA1 / Fold change vs veh, HNRNPA1 / RFU, RNF170 / Fold change vs veh, RNF170 / RFU, ZNF28 / Fold change vs veh, ZNF28 / RFU, RNGTT / Fold change vs veh, RNGTT / RFU, OGT / Fold change vs veh, OGT / RFU, BRD1 / Fold change vs veh, BRD1 / RFU, MARS / Fold change vs veh, MARS / RFU, ZNF655 / Fold change vs veh, ZNF655 / RFU, FAHD1 / Fold change vs veh, FAHD1 / RFU, BDP1 / Fold change vs veh, BDP1 / RFU, LRRCC1 / Fold change vs veh, LRRCC1 / RFU, ARID1A / Fold change vs veh, ARID1A / RFU, ZNF146 / Fold change vs veh, ZNF146 / RFU, ZNF330 / Fold change vs veh, ZNF330 / RFU, GPN3 / Fold change vs veh, GPN3 / RFU, C9orf123 / Fold change vs veh, C9orf123 / RFU, N4BP2L2 / Fold change vs veh, N4BP2L2 / RFU, ARFIP1 / Fold change vs veh, ARFIP1 / RFU, FAM179B / Fold change vs veh, FAM179B / RFU, BCL10 / Fold change vs veh, BCL10 / RFU, UHRF1BP1L / Fold change vs veh, UHRF1BP1L / RFU, BET1 / Fold change vs veh, BET1 / RFU, CNOT2 / Fold change vs veh, CNOT2 / RFU, ZNF268 / Fold change vs veh, ZNF268 / Fold change vs veh, ZNF507 / RFU, DGCR2 / Fold change vs veh, DGCR2 / RFU, WDSUB1 / Fold change vs veh, WDSUB1 / Fold change vs veh, HSP90B1 /// MIR3652 / RFU, ADSS / Fold change vs veh, ADSS / RFU, GK / Fold change vs veh, GK / RFU, ZNF148 / Fold change vs veh, ZNF148 / RFU, TAF9 / Fold change vs veh, TAF9 / RFU, SLC1A5 / Fold change vs veh, SLC1A5 / RFU, SLMO2 / Fold change vs veh, SLMO2 / RFU, ABCC4 / Fold change vs veh, ABCC4 / RFU, LOC101060439 /// RAP1B / Fold change vs veh, LOC101060439 /// RAP1B / RFU, RFX7 / Fold change vs veh, RFX7 / RFU, GTPBP10 / Fold change vs veh, GTPBP10 / RFU, CNEP1R1 / Fold change vs veh, CNEP1R1 / RFU, BIVM-ERCC5 /// ERCC5 / Fold change vs veh, BIVM-ERCC5 /// ERCC5 / RFU, ILF3 / Fold change vs veh, ILF3 / RFU 11762660_at / Fold change /veh 11762660_at / RFU VCAN (11757783_s_at) / Fold change /veh VCAN (11757783_s_at) / RFU DDX43 (11728927_at) / Fold change /veh DDX43 (11728927_at) / RFU KRT8 (11758188_x_at) / Fold change /veh KRT8 (11758188_x_at) / RFU NKD1 (11759106_at) / Fold change /veh NKD1 (11759106_at) / RFU SRD5A1 (11742802_a_at) / Fold change /veh SRD5A1 (11742802_a_at) / RFU TPSAB1 /// TPSB2 (11721975_s_at) / Fold change /veh TPSAB1 /// TPSB2 (11721975_s_at) / RFU GSTM3 (11746129_a_at) / Fold change /veh GSTM3 (11746129_a_at) / RFU IL23R (11737362_x_at) / Fold change /veh IL23R (11737362_x_at) / RFU TMEM51 (11727254_a_at) / Fold change /veh TMEM51 (11727254_a_at) / RFU PIWIL2 (11732686_x_at) / Fold change /veh PIWIL2 (11732686_x_at) / RFU ORM1 (11744905_x_at) / Fold change /veh ORM1 (11744905_x_at) / RFU CCDC152 (11743942_at) / Fold change /veh CCDC152 (11743942_at) / RFU ECM1 (11717891_a_at) / Fold change /veh ECM1 (11717891_a_at) / RFU IL23R (11748794_a_at) / Fold change /veh IL23R (11748794_a_at) / RFU TNFAIP8L3 (11732012_x_at) / Fold change /veh TNFAIP8L3 (11732012_x_at) / RFU MBOAT4 (11741988_at) / Fold change /veh MBOAT4 (11741988_at) / RFU 11764193_at / Fold change /veh 11764193_at / RFU TMEM53 (11763286_at) / Fold change /veh TMEM53 (11763286_at) / RFU MAGEB2 (11727129_at) / Fold change /veh MAGEB2 (11727129_at) / RFU TMEM200A (11744735_a_at) / Fold change /veh TMEM200A (11744735_a_at) / RFU CCDC152 (11751479_a_at) / Fold change /veh CCDC152 (11751479_a_at) / RFU FAM211A (11726209_a_at) / Fold change /veh FAM211A (11726209_a_at) / RFU RGS16 (11746705_a_at) / Fold change /veh RGS16 (11746705_a_at) / RFU VCAN (11755009_s_at) / Fold change /veh VCAN (11755009_s_at) / RFU RHOB (11743442_s_at) / Fold change /veh RHOB (11743442_s_at) / RFU RGS16 (11720943_a_at) / Fold change /veh RGS16 (11720943_a_at) / RFU RGS16 (11720944_at) / Fold change /veh RGS16 (11720944_at) / RFU, VPS4B / Fold change vs veh, VPS4B / RFU, CREB1 / Fold change vs veh, CREB1 / RFU, DNAJC13 / Fold change vs veh, DNAJC13 / RFU, GNAQ / Fold change vs veh, GNAQ / RFU, CDK5R1 / Fold change vs veh, CDK5R1 / RFU, ZRANB3 / Fold change vs veh, ZRANB3 / RFU, CUL4A / Fold change vs veh, CUL4A / RFU, CCNY / Fold change vs veh, CCNY / RFU, UFL1 / Fold change vs veh, UFL1 / RFU, COG3 / Fold change vs veh, COG3 / RFU, DIAPH2 / Fold change vs veh, DIAPH2 / RFU, SKA2 / Fold change vs veh, SKA2 / RFU, AFF3 / Fold change vs veh, AFF3 / RFU, LMF1 / Fold change vs veh, LMF1 / RFU, IPO11 / Fold change vs veh, IPO11 / RFU, DFFB / Fold change vs veh, DFFB / RFU, FOXP1 / Fold change vs veh, FOXP1 / RFU, CARD8 / Fold change vs veh, CARD8 / RFU, STRN3 / Fold change vs veh, STRN3 / RFU, ADK / Fold change vs veh, ADK / RFU, RASSF2 / Fold change vs veh, RASSF2 / RFU, WIPF1 / Fold change vs veh, WIPF1 / RFU, LARP1B / Fold change vs veh, LARP1B / RFU, RASA1 / Fold change vs veh, RASA1 / RFU, RB1 / Fold change vs veh, RB1 / RFU, PPFIA1 / Fold change vs veh, PPFIA1 / RFU, MAT2A / Fold change vs veh, MAT2A / RFU, CCT5 / Fold change vs veh, CCT5 / RFU, WDR92 / Fold change vs veh, WDR92 / RFU, CUX1 / Fold change vs veh, CUX1 / RFU, TTC7A / Fold change vs veh, TTC7A / RFU, TMEM135 / Fold change vs veh, TMEM135 / RFU, DEPTOR / Fold change vs veh, DEPTOR / RFU, CPM / Fold change vs veh, CPM / RFU, DNAJB6 / Fold change vs veh, DNAJB6 / RFU, CACNA2D3 / Fold change vs veh, CACNA2D3 / RFU, DTX4 / Fold change vs veh, DTX4 / RFU, TFCP2 / Fold change vs veh, TFCP2 / RFU, GMCL1 /// GMCL1P1 / Fold change vs veh, GMCL1 /// GMCL1P1 / RFU, AEBP2 / Fold change vs veh, AEBP2 / RFU, SNHG1 /// SNORD22 /// SNORD25 /// SNORD26 /// SNORD27 /// SNORD28 /// SNORD29 /// SNORD31 / Fold change vs veh, SNHG1 /// SNORD22 /// SNORD25 /// SNORD26 /// SNORD27 /// SNORD28 /// SNORD29 /// SNORD31 / Fold change (Aza/veh), C12orf56 (ProbeSet 11735607_a_at) / Fold change (ACY-1035/veh), C12orf56 (ProbeSet 11735607_a_at) / Fold change (Aza/veh), FGFR1OP (ProbeSet 11751329_s_at) / Fold change (ACY-1035/veh), FGFR1OP (ProbeSet 11751329_s_at) / Fold change (Aza/veh), VPS36 (ProbeSet 11739960_a_at) / Fold change (ACY-1035/veh), VPS36 (ProbeSet 11739960_a_at) / RFU SYPL1 (11715823_x_at) / Fold change /veh SYPL1 (11715823_x_at) / RFU IGFBP7 (11715501_s_at) / Fold change /veh IGFBP7 (11715501_s_at) / RFU REEP3 (11722064_at) / Fold change /veh REEP3 (11722064_at) / RFU IGLL1 (11728026_x_at) / Fold change /veh IGLL1 (11728026_x_at): dose or concentration left out as unconfirmed
Conditions: ProbeSet 11753234_a_at; LIST B

Nc1ccc(-c2cccs2)cc1NC(=O)c1ccc2c(c1)cc(C1CC1)n2CCN1CCOCC1 [ACY-1035]
RFU, TAMM41: 55.35 RFU
